Experimental findings from PubChem BioAssay AID248 (DTP/NCI, 2004) are described below.

Values joined by “and” are separate entries in the source; they are usually repeats but may differ in a detail not shown here. Equal values may be shown once. Toxic doses and inconclusive results are not listed.

The assay concerns L1210 leukemia ip in BDF1 mice, survival T/C. In words: NCI In Vivo Anticancer Drug Screen. Data for tumor model L1210 Leukemia (intraperitoneal) in B6D2F1 (BDF1) mice. Particulars: endpoint: mean survival time, higher = longer survival. The method, boiled down: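 Each compound was tested against a transplantable tumor grown in mice. The endpoint was survival, with treated animals benchmarked against vehicle controls as a simple ratio.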

Setting [1] is: dose: 100.0 mg/kg/injection, schedule: Q01DX001 (ip), vehicle: saline.
The mark [2] stands for this setting: dose: 200.0 mg/kg/injection, schedule: Q01DX001 (ip), vehicle: saline.
Where [3] appears, read: dose: 400.0 mg/kg/injection, schedule: Q01DX001 (ip), vehicle: saline.
Setting [4] is: dose: 100.0 mg/kg/injection, schedule: Q01DX009 (ip), vehicle: Klucel (hydroxypropylcellulose) (HPC).
Where [5] appears, read: dose: 200.0 mg/kg/injection, schedule: Q01DX009 (ip), vehicle: Klucel (hydroxypropylcellulose) (HPC).
Where [6] appears, read: dose: 400.0 mg/kg/injection, schedule: Q01DX009 (ip), vehicle: Klucel (hydroxypropylcellulose) (HPC).
[7] abbreviates: dose: 50.0 mg/kg/injection, schedule: Q04DX002 (ip), vehicle: Klucel (hydroxypropylcellulose) (HPC).
Setting [8] is: dose: 100.0 mg/kg/injection, schedule: Q04DX002 (ip), vehicle: Klucel (hydroxypropylcellulose) (HPC).

`O=C(Nc1ccc(C2=NCCN2)cc1)c1cc(C(=O)Nc2ccc(C3=NCCN3)cc2)ncn1`: the T/C (dose: 0.47 mg/kg/injection, schedule: Q01DX015 (ip), vehicle: methylcellulose (MC)) was 96 % of control; the T/C (dose: 0.93 mg/kg/injection, schedule: Q01DX015 (ip), vehicle: methylcellulose (MC)) is 108 % of control; the T/C (dose: 0.93 mg/kg/injection, schedule: Q01DX Z (ip), vehicle: carboxymethylcellulose (CMC)) was 94 % of control; the T/C (dose: 1.87 mg/kg/injection, schedule: Q01DX015 (ip), vehicle: methylcellulose (MC)) was 100 % of control and 101 % of control; the T/C (dose: 1.87 mg/kg/injection, schedule: Q01DX Z (ip), vehicle: carboxymethylcellulose (CMC)) was 120 % of control; the T/C (dose: 3.75 mg/kg/injection, schedule: Q01DX015 (ip), vehicle: methylcellulose (MC)) is 102 % of control and 116 % of control. The T/C by setting is: (dose: 6.25 mg/kg/injection, schedule: Q01DX001 (ip), vehicle: methylcellulose (MC)) 112 % of control; (dose: 7.5 mg/kg/injection, schedule: Q01DX015 (ip), vehicle: methylcellulose (MC)) 116 % of control and 118 % of control; (dose: 12.5 mg/kg/injection, schedule: Q01DX001 (ip), vehicle: methylcellulose (MC)) 108 % of control; (dose: 15.0 mg/kg/injection, schedule: Q01DX015 (ip), vehicle: other) 153 % of control; (dose: 15.0 mg/kg/injection, schedule: Q01DX Z (ip), vehicle: carboxymethylcellulose (CMC)) 303 % of control; (dose: 25.0 mg/kg/injection, schedule: Q01DX001 (ip), vehicle: methylcellulose (MC)) 104 % of control. For the same compound, the T/C was 93 % of control (dose: 30.0 mg/kg/injection, schedule: Q01DX015 (ip), vehicle: methylcellulose (MC)); 241 % of control (dose: 30.0 mg/kg/injection, schedule: Q01DX015 (ip), vehicle: other); 224 % of control (dose: 30.0 mg/kg/injection, schedule: Q01DX Z (ip), vehicle: carboxymethylcellulose (CMC)); 118 % of control (dose: 36.0 mg/kg/injection, schedule: Q01DX001 (ip), vehicle: carboxymethylcellulose (CMC)); 112 % of control (dose: 36.0 mg/kg/injection, schedule: Q01DX001 (ip), vehicle: other); 122 % of control (dose: 50.0 mg/kg/injection, schedule: Q01DX001 (ip), vehicle: methylcellulose (MC)). Further, the T/C (dose: 53.0 mg/kg/injection, schedule: Q01DX001 (ip), vehicle: carboxymethylcellulose (CMC)) is 118 % of control; the T/C (dose: 53.0 mg/kg/injection, schedule: Q01DX001 (ip), vehicle: other) is 121 % of control; the T/C (dose: 60.0 mg/kg/injection, schedule: Q01DX015 (ip), vehicle: other) was 102 % of control; the T/C (dose: 60.0 mg/kg/injection, schedule: Q01DX Z (ip), vehicle: carboxymethylcellulose (CMC)) is 154 % of control; the T/C (dose: 79.0 mg/kg/injection, schedule: Q01DX001 (ip), vehicle: carboxymethylcellulose (CMC)) was 124 % of control; the T/C (dose: 120.0 mg/kg/injection, schedule: Q01DX Z (ip), vehicle: carboxymethylcellulose (CMC)) was 121 % of control. In addition, the T/C is 157 % of control (dose: 180.0 mg/kg/injection, schedule: Q01DX001 (ip), vehicle: carboxymethylcellulose (CMC)); 162 % of control (dose: 180.0 mg/kg/injection, schedule: Q01DX001 (ip), vehicle: other); 169 % of control (dose: 270.0 mg/kg/injection, schedule: Q01DX001 (ip), vehicle: carboxymethylcellulose (CMC)); 193 % of control (dose: 405.0 mg/kg/injection, schedule: Q01DX001 (ip), vehicle: carboxymethylcellulose (CMC)).
On to `COc1cc2cc3c4cc(OC)c(OC)cc4cc[n+]3c(/C=C/c3ccc(Cl)cc3)c2cc1OC`, for which the T/C is 93 % of control and 99 % of control (dose: 100.0 mg/kg/injection, schedule: Q01DX001 (ip), vehicle: carboxymethylcellulose (CMC)); 102 % of control and 103 % of control (dose: 100.0 mg/kg/injection, schedule: Q04DX002 (ip), vehicle: carboxymethylcellulose (CMC)); 100 % of control and 103 % of control (dose: 100.0 mg/kg/injection, schedule: Q04DX003 (ip), vehicle: carboxymethylcellulose (CMC)); 99 % of control and 114 % of control (dose: 200.0 mg/kg/injection, schedule: Q01DX001 (ip), vehicle: carboxymethylcellulose (CMC)); 94 % of control and 105 % of control (dose: 200.0 mg/kg/injection, schedule: Q04DX002 (ip), vehicle: carboxymethylcellulose (CMC)); 95 % of control and 117 % of control (dose: 200.0 mg/kg/injection, schedule: Q04DX003 (ip), vehicle: carboxymethylcellulose (CMC)). The T/C was 94 % of control and 111 % of control (dose: 400.0 mg/kg/injection, schedule: Q01DX001 (ip), vehicle: carboxymethylcellulose (CMC)); 102 % of control and 113 % of control (dose: 400.0 mg/kg/injection, schedule: Q04DX002 (ip), vehicle: carboxymethylcellulose (CMC)); 100 % of control and 92 % of control (dose: 400.0 mg/kg/injection, schedule: Q04DX003 (ip), vehicle: carboxymethylcellulose (CMC)).
As for `c1ncc2[nH]cnc2n1`, the T/C is 96 % of control (dose: 27.33 mg/kg/injection, schedule: Q01DX Z (ip), vehicle: carboxymethylcellulose (CMC)); 96 % of control (dose: 54.67 mg/kg/injection, schedule: Q01DX Z (ip), vehicle: carboxymethylcellulose (CMC)); 108 % of control (dose: 109.35 mg/kg/injection, schedule: Q01DX Z (ip), vehicle: carboxymethylcellulose (CMC)); 98 % of control (dose: 218.7 mg/kg/injection, schedule: Q01DX Z (ip), vehicle: carboxymethylcellulose (CMC)).
For `c1ccc(SCc2ccncc2)nc1`, the T/C by setting is: under setting [1], 100 % of control; under setting [2], 92 % of control; under setting [3], 88 % of control.
In the case of `Clc1ccc(Cl)nc1`, the T/C is 103 % of control under setting [4]; 98 % of control (dose: 100.0 mg/kg/injection, schedule: Q04DX003 (ip), vehicle: Klucel (hydroxypropylcellulose) (HPC)); 93 % of control under setting [5]; 98 % of control (dose: 200.0 mg/kg/injection, schedule: Q04DX003 (ip), vehicle: Klucel (hydroxypropylcellulose) (HPC)); 103 % of control under setting [6]; 88 % of control (dose: 400.0 mg/kg/injection, schedule: Q04DX003 (ip), vehicle: Klucel (hydroxypropylcellulose) (HPC)).
For `O=C(c1ccccc1)c1ccc(O)c([N+](=O)[O-])c1`, the T/C by setting is: (dose: 25.0 mg/kg/injection, schedule: Q04DX002 (ip), vehicle: Klucel (hydroxypropylcellulose) (HPC)) 113 % of control; under setting [7], 100 % of control; under setting [8], 90 % of control.
With `O=P(O)(Oc1ccccc1)c1ccccc1`, the T/C under setting [1] was 107 % of control, the T/C under setting [2] is 105 % of control and the T/C under setting [3] was 100 % of control.
Take `c1ccc2c(c1)Nc1ccccc1[As]2C1CCCCC1`: the T/C is, setting by setting: (dose: 12.5 mg/kg/injection, schedule: Q04DX002 (ip), vehicle: saline with Tween-80) 99 % of control; (dose: 25.0 mg/kg/injection, schedule: Q04DX002 (ip), vehicle: saline with Tween-80) 99 % of control; (dose: 50.0 mg/kg/injection, schedule: Q04DX002 (ip), vehicle: saline with Tween-80) 101 % of control.
Consider `O=C1CN(/N=C/c2ccc(-c3ccc(Cl)c(Cl)c3)o2)C(=O)N1`, for which the T/C is, setting by setting: under setting [7], 100 % of control; under setting [8], 110 % of control; (dose: 200.0 mg/kg/injection, schedule: Q04DX002 (ip), vehicle: Klucel (hydroxypropylcellulose) (HPC)) 95 % of control.
In the case of `O=P(Oc1ccccc1)(OP(=O)(Oc1ccccc1)N(CCCl)CCCl)N(CCCl)CCCl` (stereo unspecified), the T/C was 97 % of control (dose: 12.5 mg/kg/injection, schedule: Q01DX Z (ip), vehicle: methylcellulose (MC)); 102 % of control (dose: 25.0 mg/kg/injection, schedule: Q01DX Z (ip), vehicle: methylcellulose (MC)); 96 % of control (dose: 50.0 mg/kg/injection, schedule: Q01DX Z (ip), vehicle: methylcellulose (MC)); 96 % of control (dose: 100.0 mg/kg/injection, schedule: Q01DX Z (ip), vehicle: methylcellulose (MC)); 98 % of control (dose: 250.0 mg/kg/injection, schedule: Q01DX Z (ip), vehicle: other); 104 % of control (dose: 500.0 mg/kg/injection, schedule: Q01DX Z (ip), vehicle: other).
Consider `CC(=O)N(C)c1ccc(NC(=O)c2c(Br)c(Br)c(Br)c(Br)c2C(=O)O)cc1`, for which the T/C is, setting by setting: under setting [4], 98 % of control; under setting [5], 89 % of control; under setting [6], 105 % of control.
